Results taken from patent US20120164226A1, “Compositions and Methods for Improving Prognosis of a Human with Subarachnoid Hemorrhage” (priority 2007, published 2012).

Assays:
[1] = tested on: Subarachnoid Hemorrhage (SAH) Dog Model; assay: Study 2: angiographic vasospasm (basilar artery diameter) in SAH dog model; assay type: in vivo; settings: oral nimodipine 0.86 mg/kg six times per day till day 21
Experimental: The mixture was added to a surfactant containing aqueous solution to form an emulsion and the solvent extracted to produce the flowable microparticulate nimodipine formulation. […] The microparticulate nimodipine formulation is combined with a pharmaceutical carrier to form the pharmaceutical composition of the described invention. […] The placebo formulation contained the microparticles plus vehicle, but no nimodipine. […] (Data not shown). […] On Day 1, the dogs were weighed, baseline blood was collected and blood pressure, temperature, heart rate oxygen, and blood gases were monitored throughout the surgical procedure. Cerebral angiography was performed through one vertebral artery. Images were captured using identical exposure factors and magnification for every angiogram. An internal magnification standard was included in every angiogram. […] The needle was withdrawn immediately after the injection. […] The animal was then turned supine, the femoral catheter was removed, and the femoral artery was ligated. The incision was closed in a standard fashion. […] The angiographic data was independently analyzed by two reviewers who were blinded to the animal group. […] Individual percent vasospasm was determined for each animal for Days 8 and 15 using formula (I): Average percent vasospasm for Days 8 and 15 was also determined for each group. […]

Na^+ currents = settings: cited from earlier work
[2] = molecular target: P/Q-type calcium currents (Homo sapiens, UniProt O00555); settings: cited from earlier work
P/Q-type calcium currents, sequence (O00555 whole entry): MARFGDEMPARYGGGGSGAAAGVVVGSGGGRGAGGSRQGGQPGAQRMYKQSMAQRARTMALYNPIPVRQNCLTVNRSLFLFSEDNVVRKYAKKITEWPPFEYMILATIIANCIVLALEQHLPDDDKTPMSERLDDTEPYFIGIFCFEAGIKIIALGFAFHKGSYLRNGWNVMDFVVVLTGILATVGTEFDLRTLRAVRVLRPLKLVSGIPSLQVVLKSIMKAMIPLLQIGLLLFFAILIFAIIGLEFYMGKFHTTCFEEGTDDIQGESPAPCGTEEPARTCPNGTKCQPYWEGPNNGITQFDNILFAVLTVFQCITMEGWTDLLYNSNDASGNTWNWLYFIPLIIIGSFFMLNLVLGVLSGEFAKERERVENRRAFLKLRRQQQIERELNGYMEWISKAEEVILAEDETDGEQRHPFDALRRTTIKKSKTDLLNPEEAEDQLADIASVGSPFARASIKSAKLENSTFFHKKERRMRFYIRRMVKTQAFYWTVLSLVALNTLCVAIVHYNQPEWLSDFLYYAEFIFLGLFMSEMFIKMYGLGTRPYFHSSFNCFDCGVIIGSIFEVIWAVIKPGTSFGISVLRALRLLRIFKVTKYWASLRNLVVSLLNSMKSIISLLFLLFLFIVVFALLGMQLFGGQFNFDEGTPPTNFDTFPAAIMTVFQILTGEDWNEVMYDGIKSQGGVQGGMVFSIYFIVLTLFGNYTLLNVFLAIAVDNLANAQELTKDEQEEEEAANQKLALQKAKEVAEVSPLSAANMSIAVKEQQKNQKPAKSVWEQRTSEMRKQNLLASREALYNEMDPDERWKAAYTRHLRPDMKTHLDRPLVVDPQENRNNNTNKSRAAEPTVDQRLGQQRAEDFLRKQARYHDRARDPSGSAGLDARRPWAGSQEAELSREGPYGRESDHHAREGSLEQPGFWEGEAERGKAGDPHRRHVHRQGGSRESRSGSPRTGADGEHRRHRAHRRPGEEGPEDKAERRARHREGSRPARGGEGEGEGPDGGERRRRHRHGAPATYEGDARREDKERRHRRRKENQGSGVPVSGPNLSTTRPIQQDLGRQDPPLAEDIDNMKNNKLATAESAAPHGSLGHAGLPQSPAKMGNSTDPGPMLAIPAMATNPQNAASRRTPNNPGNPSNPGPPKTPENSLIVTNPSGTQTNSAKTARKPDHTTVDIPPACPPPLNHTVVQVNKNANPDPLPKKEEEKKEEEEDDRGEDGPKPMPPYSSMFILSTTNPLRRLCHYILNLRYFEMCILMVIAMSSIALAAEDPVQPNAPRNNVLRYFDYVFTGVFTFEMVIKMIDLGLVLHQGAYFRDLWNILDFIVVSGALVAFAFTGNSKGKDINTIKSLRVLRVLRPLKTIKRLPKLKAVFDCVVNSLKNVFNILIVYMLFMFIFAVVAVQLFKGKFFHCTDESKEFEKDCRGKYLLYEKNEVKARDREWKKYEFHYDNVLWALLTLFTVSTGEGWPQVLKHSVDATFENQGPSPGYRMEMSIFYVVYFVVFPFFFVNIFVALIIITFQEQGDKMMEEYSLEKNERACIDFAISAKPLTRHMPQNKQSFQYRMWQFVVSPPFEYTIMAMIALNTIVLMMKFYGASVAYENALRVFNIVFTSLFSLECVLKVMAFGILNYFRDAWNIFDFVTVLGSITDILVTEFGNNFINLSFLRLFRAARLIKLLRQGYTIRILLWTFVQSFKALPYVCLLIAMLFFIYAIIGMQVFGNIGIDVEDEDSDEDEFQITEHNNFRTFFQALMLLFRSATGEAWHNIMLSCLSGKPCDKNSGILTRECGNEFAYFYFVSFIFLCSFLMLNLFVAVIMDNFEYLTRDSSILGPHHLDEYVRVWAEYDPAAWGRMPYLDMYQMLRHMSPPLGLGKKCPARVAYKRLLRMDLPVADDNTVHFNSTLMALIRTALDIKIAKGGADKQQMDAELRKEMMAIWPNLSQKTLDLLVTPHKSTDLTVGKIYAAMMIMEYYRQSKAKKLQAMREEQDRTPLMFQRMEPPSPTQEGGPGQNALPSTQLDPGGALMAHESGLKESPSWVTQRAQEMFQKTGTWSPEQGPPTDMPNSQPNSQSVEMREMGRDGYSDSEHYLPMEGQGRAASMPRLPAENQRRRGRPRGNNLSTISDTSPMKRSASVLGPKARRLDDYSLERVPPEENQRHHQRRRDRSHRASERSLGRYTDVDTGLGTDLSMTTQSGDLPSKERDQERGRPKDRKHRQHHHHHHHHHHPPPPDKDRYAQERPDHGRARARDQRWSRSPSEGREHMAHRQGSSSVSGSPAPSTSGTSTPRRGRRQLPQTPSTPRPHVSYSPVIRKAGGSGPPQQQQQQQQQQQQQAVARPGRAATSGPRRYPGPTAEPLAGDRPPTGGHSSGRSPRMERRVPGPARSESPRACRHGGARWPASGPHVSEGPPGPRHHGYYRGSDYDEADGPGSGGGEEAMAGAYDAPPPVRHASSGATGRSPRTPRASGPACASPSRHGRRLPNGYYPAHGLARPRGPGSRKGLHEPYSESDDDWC

L-type calcium currents = settings: cited from earlier work
N-type calcium current = N-type calcium current (Homo sapiens, UniProt Q00975); settings: 300 nM to 500 nM; cited from earlier work
K^+ currents = settings: cited from earlier work
[3] = tested on: R-type current in preparations of the neuronal cell body, retinal ganglion cells and hippocampal pyramidal cells; settings: cited from earlier work
T-type calcium currents = settings: cited from earlier work
[4] = molecular target: T1, R-type calcium current in the neurohypophysial nerve endings (Homo sapiens, UniProt Q15878); settings: 40 nM concentration; cited from earlier work
T1 construct: R-type calcium current in the neurohypophysial nerve endings at 40 nM concentration; host or cells: neurohypophysial nerve endings
T1 sequence (Q15878 whole entry): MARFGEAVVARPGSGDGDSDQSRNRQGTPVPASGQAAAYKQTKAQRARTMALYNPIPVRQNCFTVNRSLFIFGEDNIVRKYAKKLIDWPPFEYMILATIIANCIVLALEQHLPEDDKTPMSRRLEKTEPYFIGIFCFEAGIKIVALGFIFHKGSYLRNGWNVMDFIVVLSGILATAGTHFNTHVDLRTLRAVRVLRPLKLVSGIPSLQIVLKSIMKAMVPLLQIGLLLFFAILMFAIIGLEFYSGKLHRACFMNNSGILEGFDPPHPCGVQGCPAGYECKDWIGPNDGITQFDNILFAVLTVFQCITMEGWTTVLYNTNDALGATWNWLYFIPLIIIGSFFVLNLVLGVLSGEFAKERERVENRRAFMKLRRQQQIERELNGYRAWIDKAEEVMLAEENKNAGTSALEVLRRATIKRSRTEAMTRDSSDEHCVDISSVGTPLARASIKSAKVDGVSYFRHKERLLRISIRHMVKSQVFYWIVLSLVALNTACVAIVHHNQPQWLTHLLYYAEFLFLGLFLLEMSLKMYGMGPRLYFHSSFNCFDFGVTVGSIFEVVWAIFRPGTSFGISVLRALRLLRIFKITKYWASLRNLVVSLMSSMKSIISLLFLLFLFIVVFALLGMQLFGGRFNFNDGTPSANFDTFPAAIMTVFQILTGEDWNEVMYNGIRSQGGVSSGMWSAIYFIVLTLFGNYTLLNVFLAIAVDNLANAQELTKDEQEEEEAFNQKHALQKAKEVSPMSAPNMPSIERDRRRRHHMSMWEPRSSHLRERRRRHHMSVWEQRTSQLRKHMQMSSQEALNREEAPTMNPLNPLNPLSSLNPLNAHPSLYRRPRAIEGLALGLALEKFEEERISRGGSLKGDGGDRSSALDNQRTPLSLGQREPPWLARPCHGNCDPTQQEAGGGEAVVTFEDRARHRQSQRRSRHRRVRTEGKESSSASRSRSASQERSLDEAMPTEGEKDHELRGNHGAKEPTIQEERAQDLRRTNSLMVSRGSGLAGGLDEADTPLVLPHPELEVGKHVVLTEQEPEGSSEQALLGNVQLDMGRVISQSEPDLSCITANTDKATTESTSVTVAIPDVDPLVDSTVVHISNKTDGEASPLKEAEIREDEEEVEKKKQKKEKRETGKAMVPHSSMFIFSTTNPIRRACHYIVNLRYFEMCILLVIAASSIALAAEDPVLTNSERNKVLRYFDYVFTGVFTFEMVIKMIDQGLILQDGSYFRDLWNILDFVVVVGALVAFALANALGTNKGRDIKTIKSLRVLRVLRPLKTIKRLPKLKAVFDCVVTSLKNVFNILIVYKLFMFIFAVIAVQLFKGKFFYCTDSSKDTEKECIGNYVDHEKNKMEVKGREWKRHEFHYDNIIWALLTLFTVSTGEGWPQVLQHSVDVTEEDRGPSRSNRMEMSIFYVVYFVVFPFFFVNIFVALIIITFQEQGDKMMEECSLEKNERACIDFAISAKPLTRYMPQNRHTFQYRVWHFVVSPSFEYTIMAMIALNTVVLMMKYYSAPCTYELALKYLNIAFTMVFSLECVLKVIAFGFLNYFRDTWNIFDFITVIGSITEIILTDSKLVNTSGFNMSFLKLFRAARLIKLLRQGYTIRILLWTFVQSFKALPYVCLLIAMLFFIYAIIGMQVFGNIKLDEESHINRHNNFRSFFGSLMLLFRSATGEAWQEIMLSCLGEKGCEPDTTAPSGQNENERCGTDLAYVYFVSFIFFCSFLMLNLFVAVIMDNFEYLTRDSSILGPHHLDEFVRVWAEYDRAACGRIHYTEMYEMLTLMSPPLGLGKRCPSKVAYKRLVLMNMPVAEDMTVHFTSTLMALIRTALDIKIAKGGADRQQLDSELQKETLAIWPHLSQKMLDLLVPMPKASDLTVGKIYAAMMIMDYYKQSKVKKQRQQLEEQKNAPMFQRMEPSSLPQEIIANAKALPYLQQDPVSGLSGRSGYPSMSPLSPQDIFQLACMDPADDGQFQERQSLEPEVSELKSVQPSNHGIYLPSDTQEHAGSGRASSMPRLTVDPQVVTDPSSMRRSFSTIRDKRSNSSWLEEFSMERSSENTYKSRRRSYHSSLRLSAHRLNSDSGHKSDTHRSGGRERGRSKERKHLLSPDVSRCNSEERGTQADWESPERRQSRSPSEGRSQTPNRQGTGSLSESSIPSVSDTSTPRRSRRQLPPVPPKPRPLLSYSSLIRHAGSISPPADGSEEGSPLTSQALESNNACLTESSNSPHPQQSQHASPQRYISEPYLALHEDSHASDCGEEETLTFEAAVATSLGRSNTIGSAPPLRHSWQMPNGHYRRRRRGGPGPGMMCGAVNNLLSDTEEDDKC

Compound | percent vasospasm (% change in mean basilar artery diameter from baseline), Mean ([1]; Day 8) [%] | percent vasospasm (% change in mean basilar artery diameter from baseline), Mean ([1]; Day 15) [%] | effect on Na+ currents (Na^+ currents) | effect on P/Q-type calcium currents [2] | effect on L-type calcium currents (L-type calcium currents) | N-type calcium current blocked (N-type calcium current) | effect on K+ currents (K^+ currents) | effect on R-type current [3] | effect on T-type calcium currents (T-type calcium currents) | block of R-type calcium current [4]
COCCOC(=O)C1=C(C)NC(C)=C(C(=O)OC(C)C)C1c1cccc([N+](=O)[O-])c1 (stereo not shown) [Control, nimodipine] | −27.89 | −11.67 | – | – | – | – | – | – | – | –
SNX-482 | – | – | no effect | no effect | no effect | 30-50% | no effect | no significant effect | no effect | blocks
